Measurements as given in BindingDB's records for doi:10.1016/j.bmc.2009.01.019 (Takeda Pharmaceutical, 2009).

Target: Glycogen synthase kinase-3 beta (Homo sapiens, UniProt P49841)
Test: GSK-3beta Kinase Inhibition Assay
Conditions: pH 7.5; 37 °C
Method: Human GSK-3beta was expressed as the N-terminal FLAG-tagged protein using a baculovirus expression system. The kinase assay was conducted in a 96-well plate assay format. The kinase reactions were initiated by addition of ATP-solution (final 500 nM), and were incubated for 90 min at 37 deg C for GSK-3 beta. The reactions were terminated by the addition of Kinase-Glo reagent containing EDTA. […] The reaction window was calculated from the difference of the average signals obtained from the control (5% DMSO) and the background wells. […] The best-fit lines were obtained by analyzing the logistic fitting equation.

Glycogen synthase kinase-3 beta, sequence (P49841 whole entry): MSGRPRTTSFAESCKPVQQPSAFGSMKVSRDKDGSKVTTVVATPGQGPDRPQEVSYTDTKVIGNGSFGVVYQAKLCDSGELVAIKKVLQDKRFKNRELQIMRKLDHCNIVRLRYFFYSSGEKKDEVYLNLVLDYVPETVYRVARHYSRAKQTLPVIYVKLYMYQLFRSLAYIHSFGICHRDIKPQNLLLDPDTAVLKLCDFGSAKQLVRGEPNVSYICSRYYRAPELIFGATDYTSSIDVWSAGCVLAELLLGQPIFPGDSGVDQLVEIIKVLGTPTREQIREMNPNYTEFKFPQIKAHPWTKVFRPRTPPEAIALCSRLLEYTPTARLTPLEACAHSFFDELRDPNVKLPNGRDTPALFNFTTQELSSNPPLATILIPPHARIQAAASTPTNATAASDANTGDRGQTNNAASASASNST

IC50: 6.5 nM
Compound: COc1ccc(CSc2nnc(-c3ccc4nccn4c3)o2)cc1C(F)(F)F [oxadiazole derivative, 20q]
